Data as given in patent publication US8192962B2, “Processes for detecting toxic substances” (Daikin Industries, Ltd., priority 2001, dated 2012).

Tested on: Energy system protein genes
Assay: DNA chip mRNA expression in yeast, energy system protein genes (Table 4)
Assay type: cell-based, Saccharomyces cerevisiae S288C
Summary of the method: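 Values are treated/untreated fluorescence ratios from a whole-genome yeast DNA chip hybridized over 12 hours at 65° C with Cy3- or Cy5-labelled cDNA from poly(A) mRNA. Log-phase S288C yeast in YPD at 25° C had received a single toxic chemical for two hours, dosed to slow growth without killing.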

## CCCCCCCCCCCCOS(=O)(=O)[O-].[Na+] [(18), sodium lauryl sulfate]
Yeast gene YAL060W
  The level of expressed mRNA in the presence of chemical substance/The level of expressed mRNA in the absence of chemical substance: 1.8
Yeast gene YBL058W, cells incubated two hours with the chemical substance
  The level of expressed mRNA in the presence of chemical substance/The level of expressed mRNA in the absence of chemical substance: 1.4
Yeast gene YBL099W, cells incubated two hours with the chemical substance
  The level of expressed mRNA in the presence of chemical substance/The level of expressed mRNA in the absence of chemical substance: 1.2
Yeast gene YBR001C, cells incubated two hours with the chemical substance
  The level of expressed mRNA in the presence of chemical substance/The level of expressed mRNA in the absence of chemical substance: 1.6
Yeast gene YBR185C, cells incubated two hours with the chemical substance
  The level of expressed mRNA in the presence of chemical substance/The level of expressed mRNA in the absence of chemical substance: 1.3
Yeast gene YBR221C, cells incubated two hours with the chemical substance
  The level of expressed mRNA in the presence of chemical substance/The level of expressed mRNA in the absence of chemical substance: 1.0
Yeast gene YCL040W
  The level of expressed mRNA in the presence of chemical substance/The level of expressed mRNA in the absence of chemical substance: 1.7
Yeast gene YCR012W
  The level of expressed mRNA in the presence of chemical substance/The level of expressed mRNA in the absence of chemical substance: 1.3
Yeast gene YCR046C, cells incubated two hours with the chemical substance
  The level of expressed mRNA in the presence of chemical substance/The level of expressed mRNA in the absence of chemical substance: 1.0
Yeast gene YCR105W, cells incubated two hours with the chemical substance
  The level of expressed mRNA in the presence of chemical substance/The level of expressed mRNA in the absence of chemical substance: 1.1
Yeast gene YDL021W
  The level of expressed mRNA in the presence of chemical substance/The level of expressed mRNA in the absence of chemical substance: 3.2
Yeast gene YDL067C, cells incubated two hours with the chemical substance
  The level of expressed mRNA in the presence of chemical substance/The level of expressed mRNA in the absence of chemical substance: 1.7
Yeast gene YDL078C, cells incubated two hours with the chemical substance
  The level of expressed mRNA in the presence of chemical substance/The level of expressed mRNA in the absence of chemical substance: 2.0
Yeast gene YDL107W, cells incubated two hours with the chemical substance
  The level of expressed mRNA in the presence of chemical substance/The level of expressed mRNA in the absence of chemical substance: 1.5
Yeast gene YDL174C
  The level of expressed mRNA in the presence of chemical substance/The level of expressed mRNA in the absence of chemical substance: 4.0
Yeast gene YDL181W, cells incubated two hours with the chemical substance
  The level of expressed mRNA in the presence of chemical substance/The level of expressed mRNA in the absence of chemical substance: 1.4
Yeast gene YDR001C
  The level of expressed mRNA in the presence of chemical substance/The level of expressed mRNA in the absence of chemical substance: 1.6
Yeast gene YDR050C, cells incubated two hours with the chemical substance
  The level of expressed mRNA in the presence of chemical substance/The level of expressed mRNA in the absence of chemical substance: 2.3
Yeast gene YDR079W, cells incubated two hours with the chemical substance
  The level of expressed mRNA in the presence of chemical substance/The level of expressed mRNA in the absence of chemical substance: 1.3
Yeast gene YDR178W, cells incubated two hours with the chemical substance
  The level of expressed mRNA in the presence of chemical substance/The level of expressed mRNA in the absence of chemical substance: 2.3
Yeast gene YDR231C
  The level of expressed mRNA in the presence of chemical substance/The level of expressed mRNA in the absence of chemical substance: 1.3
Yeast gene YDR298C, cells incubated two hours with the chemical substance
  The level of expressed mRNA in the presence of chemical substance/The level of expressed mRNA in the absence of chemical substance: 1.6
Yeast gene YDR377W, cells incubated two hours with the chemical substance
  The level of expressed mRNA in the presence of chemical substance/The level of expressed mRNA in the absence of chemical substance: 2.5
Yeast gene YDR529C, cells incubated two hours with the chemical substance
  The level of expressed mRNA in the presence of chemical substance/The level of expressed mRNA in the absence of chemical substance: 2.3
Yeast gene YEL024W, cells incubated two hours with the chemical substance
  The level of expressed mRNA in the presence of chemical substance/The level of expressed mRNA in the absence of chemical substance: 1.5
Yeast gene YEL039C, cells incubated two hours with the chemical substance
  The level of expressed mRNA in the presence of chemical substance/The level of expressed mRNA in the absence of chemical substance: 1.1
Yeast gene YER178W
  The level of expressed mRNA in the presence of chemical substance/The level of expressed mRNA in the absence of chemical substance: 0.9
Yeast gene YFL057C
  The level of expressed mRNA in the presence of chemical substance/The level of expressed mRNA in the absence of chemical substance: 1.3
Yeast gene YFR053C
  The level of expressed mRNA in the presence of chemical substance/The level of expressed mRNA in the absence of chemical substance: 2.2
Yeast gene YGL018C, cells incubated two hours with the chemical substance
  The level of expressed mRNA in the presence of chemical substance/The level of expressed mRNA in the absence of chemical substance: 1.0
Yeast gene YGL062W
  The level of expressed mRNA in the presence of chemical substance/The level of expressed mRNA in the absence of chemical substance: 0.9
Yeast gene YGL187C, cells incubated two hours with the chemical substance
  The level of expressed mRNA in the presence of chemical substance/The level of expressed mRNA in the absence of chemical substance: 2.4
Yeast gene YGL191W, cells incubated two hours with the chemical substance
  The level of expressed mRNA in the presence of chemical substance/The level of expressed mRNA in the absence of chemical substance: 1.7
Yeast gene YGL205W, cells incubated two hours with the chemical substance
  The level of expressed mRNA in the presence of chemical substance/The level of expressed mRNA in the absence of chemical substance: 9.1
Yeast gene YGL256W, cells incubated two hours with the chemical substance
  The level of expressed mRNA in the presence of chemical substance/The level of expressed mRNA in the absence of chemical substance: 0.8
Yeast gene YGR008C
  The level of expressed mRNA in the presence of chemical substance/The level of expressed mRNA in the absence of chemical substance: 4.2
Yeast gene YGR043C
  The level of expressed mRNA in the presence of chemical substance/The level of expressed mRNA in the absence of chemical substance: 4.8
Yeast gene YGR062C, cells incubated two hours with the chemical substance, 25° C., YPD medium
  The level of expressed mRNA in the presence of chemical substance/The level of expressed mRNA in the absence of chemical substance: 1.1
Yeast gene YGR087C, cells incubated two hours with the chemical substance
  The level of expressed mRNA in the presence of chemical substance/The level of expressed mRNA in the absence of chemical substance: 0.6
Yeast gene YGR174C, cells incubated two hours with the chemical substance
  The level of expressed mRNA in the presence of chemical substance/The level of expressed mRNA in the absence of chemical substance: 2.3
Yeast gene YGR192C
  The level of expressed mRNA in the presence of chemical substance/The level of expressed mRNA in the absence of chemical substance: 1.3
Yeast gene YGR244C
  The level of expressed mRNA in the presence of chemical substance/The level of expressed mRNA in the absence of chemical substance: 3.1
Yeast gene YGR254W
  The level of expressed mRNA in the presence of chemical substance/The level of expressed mRNA in the absence of chemical substance: 1.2
Yeast gene YHR179W
  The level of expressed mRNA in the presence of chemical substance/The level of expressed mRNA in the absence of chemical substance: 1.6
Yeast gene YIL160C
  The level of expressed mRNA in the presence of chemical substance/The level of expressed mRNA in the absence of chemical substance: 3.0
Yeast gene YIR031C, cells incubated two hours with the chemical substance
  The level of expressed mRNA in the presence of chemical substance/The level of expressed mRNA in the absence of chemical substance: 0.8
Yeast gene YJL052W
  The level of expressed mRNA in the presence of chemical substance/The level of expressed mRNA in the absence of chemical substance: 1.9
Yeast gene YJL121C, cells incubated two hours with the chemical substance
  The level of expressed mRNA in the presence of chemical substance/The level of expressed mRNA in the absence of chemical substance: 1.0
Yeast gene YJL166W, cells incubated two hours with the chemical substance
  The level of expressed mRNA in the presence of chemical substance/The level of expressed mRNA in the absence of chemical substance: 4.0
Yeast gene YJL216C, cells incubated two hours with the chemical substance
  The level of expressed mRNA in the presence of chemical substance/The level of expressed mRNA in the absence of chemical substance: 2.0
